Source: the NIST ThermoML archive (doi:10.1021/je050316s)
Where “and” joins values, the source holds several entries; their conditions need not be identical. Equal values may be shown once. ± gives the expanded uncertainty stated by the source.

Key:
[1] = refractive index (Na D-line) (dimensionless); settings: 101.33 kPa, Liquid, Standard Abbe refractometry
[2] = Liquid; for mass density: 101.33 kPa

SMILES | refractive index ([1]; 288.15 K) | mass density ([2]; 303.15 K) [kg/m3] | vapor or sublimation pressure ([2]; 333.15 K) [kPa] | vapor or sublimation pressure ([2]; 363.15 K) [kPa] | refractive index ([1]; 298.15 K) | mass density ([2]; 298.15 K) [kg/m3] | refractive index ([1]; 293.15 K) | mass density ([2]; 293.15 K)
NC1CCCCC1 [cyclohexylamine] | 1.4624 ± 0.0005 | 858.2 ± 0.18 | 7.51 ± 0.5 | 25.59 ± 0.58 | – | – | – | –
CCCCCCC [heptane] | – | 675.32 ± 0.44 | – | – | 1.3853 ± 0.0004 | 679.43 ± 0.44 | – | –
CCCCCCCCCCC [undecane] | – | 732.93 ± 0.36 | – | – | – | – | 1.4162 ± 0.0004 | 740.11 ± 0.28 kg/m3 and 740.11 ± 0.36 kg/m3
